Here are results for one compound from US9233143B2, “Medicinal agent for preventing exacerbation of malignant tumor, comprising combination of natriuretic peptide receptor GC-A and GC-B agonists” (National Cerebral and Cardiovascular Center, priority 2011, dated 2016).

Test [1] concerns A549 cells. Briefly: Changes in the intracellular cGMP level in response to natriuretic peptide stimulus, A549 cells. Type of test: cell-based, human. The following applies: 1×10^−11 M to 1×10^−6 M, 10 minutes, FIG. 1A. The protocol: Lung adenocarcinoma cell line, A549 cells, was obtained from ATCC (Manassas, Va.). The cells were cultured in DMEM culture medium (Invitrogen, Carlsbad, Va.) containing 10% FCS under 5% CO2 at 37° C. The amounts of the culture medium were 1.5 mL for each well of a 6-well dish, 400 μL for each well of a 24-well dish, and 150 μL for each well of a 96-well dish. In the Examples below, unless otherwise stated, the same culture medium and culture conditions were adopted.
(§1) The A549 cells were cultured in a 24-well dish at 4×10^4 cells/well, and the culture medium was replaced with DMEM culture medium free from FCS the next day. The CAFs were cultured in a 24-well dish at 1×10^4 cells/well, and the culture medium was replaced with DMEM culture medium containing 1% FCS the next day.
(§2) To these culture media, solutions of hANP, hBNP, and hCNP-22 (final concentration: ten-fold serial dilution from 1×10^−11 M to 1×10^−6 M, the same amount of physiological saline was used as a control) were separately added. After 10 minutes had passed, 400 μL of cooled 70% ethanol (containing 0.1 N hydrochloric acid) was added, and ultrasonication was performed for a short time. The treated solution was lyophilized, and the cGMP level was measured using Cyclic GMP Assay kit (made by Yamasa Corp.).

The subject of test [2] is cancer-associated fibroblasts (CAFs). Kind of test: Changes in the intracellular cGMP level in response to natriuretic peptide stimulus, CAFs. Type of test: cell-based, human. The conditions noted are these: 1×10^−11 M to 1×10^−6 M, 10 minutes, FIG. 1B. The protocol: For obtaining CAFs (cancer-associated fibroblasts), tissue harvested from a patient having lung cancer surgery was subjected to primary culture after the consent of the patient was obtained. The cells were then cultured in DMEM culture medium containing 10% FCS under 5% CO2 at 37° C., and the cells of the 5th and earlier passages were used.
as §1, §2

Test [3] deals with A549 cells. Kind of test: EMT induced by TGF-β1 in A549 cells (morphology, quantitative RT-PCR). Type of test: cell-based, human. As to the method:
Using a 6-well dish, the A549 cells were cultured at 1×10^5 cells/well, and the culture medium was replaced with DMEM culture medium free from FBS the next day. After 24 hours of culture, the cells were used in the following experiment.
An ANP group (a hANP solution was added (final concentration: 1 μM)) and a control group (the same amount of physiological saline was added) were prepared, and after 2 hours from the addition (of the hANP solution or the physiological saline) to the A549 cells, TGF-β1 was added so that the final concentration would be 0.125, 0.25, 0.5, 1.0, and 2.0 ng/mL. After 24 hours had passed, the morphological change in the cells was observed under a microscope and photographed (FIG. 2).
Then, total RNA was recovered from the above prepared ANP group and control group using TRIZOL total RNA isolation reagent (made by Invitrogen), cDNA was synthesized using reverse transcriptase, and the mRNA levels of E-cadherin, N-cadherin, VEGF-A, PDGF-B, TNF-α, and IL-6 were measured by quantitative RT-PCR. The mRNA level of each intended gene was calculated as the relative ratio of the mRNA amount of the gene to that of the housekeeping gene 36B4 measured at the same time. In the Examples below, unless otherwise stated, the mRNA levels were obtained through the same calculation.
It is known that in EMT, the expression of E-cadherin decreases while the expression of N-cadherin increases. The expression ratio of the two kinds of cadherin (N-cad/E-cad) is considered to be useful as an indicator of the degree of EMT.

Another test deals with CAFs. Briefly: Production of cancer exacerbation factors by CAFs under TGF-β1 stimulus (quantitative RT-PCR). Format: cell-based, human. The following applies: test substance 1 μM, TGF-β1 0.125-2.0 ng/mL, 24 hours, mRNA level, FIG. 5. As to the method:
Using a 6-well dish, the CAFs were cultured at 5×10^4 cells/well, and the culture medium was replaced with DMEM culture medium containing 1% FBS the next day. After 24 hours of culture, the cells were used in the following experiment.
A CNP group (a hCNP-22 solution was added (final concentration: 1 μM)) and a control group (the same amount of physiological saline was added) were prepared, and after 2 hours from the addition (of the hCNP-22 solution or the physiological saline) to the CAFs, TGF-β1 was added so that the final concentration would be 0.125, 0.25, 0.5, 1.0, and 2.0 ng/mL. After 24 hours had passed, total RNA was recovered using TRIZOL total RNA isolation reagent, cDNA was synthesized using reverse transcriptase, and the mRNA levels of VEGF-A, TGF-β1, TNF-α, and IL-6 were measured by quantitative RT-PCR.

In test [4] the test system is A549 cells co-cultured with CAFs. Kind of test: Co-culture system of cancer cells and CAFs (mRNA of the A549 cells). Format: cell-based, human. The following applies: each test substance 1 μM. The protocol: In a 6-well dish, the A549 cells were cultured at 1×10^5 cells/well. The culture medium was replaced with DMEM culture medium free from FBS the next day, and the cells were further cultured for 24 hours. In a 6-well dish having a cell culture insert (1.0 μm pore size, made by BD), the CAFs were cultured at 5×10^4 cells/well. The culture medium was replaced with DMEM culture medium containing 1% FBS the next day, and the cells were further cultured for 24 hours. To each culture medium of the two kinds of cells, test substances were separately added to prepare test substance addition groups. Control groups with no test substance were also prepared. After two hours of culture, these were subjected to co-culture. The test substance addition groups were ANP groups containing hANP at a final concentration of 1 μM, CNP groups containing hCNP-22 at a final concentration of 1 μM, and ANP+CNP groups containing both hANP and hCNP-22 each at a final concentration of 1 μM. Each of the groups were prepared by adding the test substance to each culture medium of the two kinds of cells.
On the 6-well dish of A549 cells treated as above, the above cell culture insert with the CAFs was placed to prepare a co-culture experimental model where only the culture media could pass through the cell culture insert. After 24, 48, and 72 hours of culture, total RNA of the A549 cells only was recovered, cDNA was synthesized, and the mRNA levels of E-cadherin, N-cadherin, VEGF-A, PDGF-B, and IL-6 were measured by quantitative RT-PCR (FIGS. 6 to 8). The experiment using ANP alone (ANP groups: FIG. 6), the experiment using CNP alone (CNP groups: FIG. 7), and the experiment using ANP and CNP in combination (ANP+CNP group: FIG. 8) were independently conducted, where control groups were separately set for each experiment.

The test system of a further test is tumor cells. The following applies: reports by Vesely et al.; cited from earlier work.
Setting [5] is: A549 cells, test substance 1 μM, mRNA level, FIG. 3.

On to `CC[C@H](C)[C@@H]1NC(=O)[C@H](CCCNC(=N)N)NC(=O)[C@H](CC(=O)O)NC(=O)[C@H](CCSC)NC(=O)[C@H](CCCNC(=N)N)NC(=O)CNC(=O)CNC(=O)[C@H](Cc2ccccc2)NC(=O)[C@@H](NC(=O)[C@H](CO)NC(=O)[C@H](CO)NC(=O)[C@H](CCCNC(=N)N)NC(=O)[C@H](CCCNC(=N)N)NC(=O)[C@H](CC(C)C)NC(=O)[C@@H](N)CO)CSSC[C@@H](C(=O)N[C@@H](CC(N)=O)C(=O)N[C@@H](CO)C(=O)N[C@@H](Cc2ccccc2)C(=O)N[C@@H](CCCNC(=N)N)C(=O)N[C@@H](Cc2ccc(O)cc2)C(=O)O)NC(=O)CNC(=O)[C@H](CC(C)C)NC(=O)CNC(=O)[C@H](CO)NC(=O)[C@H](CCC(N)=O)NC(=O)[C@H](C)NC(=O)CNC1=O` [hANP], for which the “intracellular cGMP level of the A549 cells” value in the test on A549 cells [1] is on record as “increased the intracellular cGMP level of the A549 cells in a concentration-dependent manner”. The “cGMP level of the CAFs” value in test [2] is “did not show such an action”. Further, the “expression ratio of N-cad/E-cad (indicator of EMT)” value in the test on A549 cells [3] (A549 cells, 1 μM hANP, TGF-β1 stimulus, FIG. 4) is “significantly decreased”. Besides, the “morphological change in the cells associated with EMT induced by the TGF-β1 stimulus” value with A549 cells [3] (A549 cells, test substance 1 μM, 24 hours after TGF-β1, FIG. 2) is “significantly suppressed”. Further, in the test on A549 cells [3] (A549 cells, test substance 1 μM, TGF-β1 0.125-2.0 ng/mL, 24 hours, mRNA level, FIG. 3), the “gene expression of the growth factors (VEGF-A, PDGF-B) and the inflammatory cytokines (TNF-α, IL-6) increased by EMT induced by the TGF-β1 stimulus” value is listed as “significantly suppressed”. Also, in the test with A549 cells [3] (setting [5]), the “decrease in the expression of E-cadherin induced by the TGF-β1 stimulus” value is on record as “inhibited decrease” and the “increase in the expression of N-cadherin induced by the TGF-β1 stimulus” value was “significantly suppressed increase”. In addition, the “effect of suppressing EMT” value in the test with A549 cells [3] (concentration of 1 μM, summary of Example 2) was “significantly suppressing EMT”. Further, in the test with CAFs, the “gene expression of the growth factors (VEGF-A, TGF-β1) and the inflammatory cytokines (TNF-α, IL-6) increased by the TGF-β1 stimulus in CAFs” value was “did not show any effect on CAFs”. Also, in test [4] (A549 cells co-cultured with CAFs 24, 48, 72 hours, FIGS. 6 to 8), the “gene expression of the growth factors (VEGF-A, PDGF-B) and inflammatory cytokine (IL-6) increased in the co-culture” value is recorded as “could not suppress”. Further, the “expression ratio of N-cadherin/E-cadherin (N-cad/E-cad), indicator of EMT, in the co-culture” value in test [4] (A549 cells co-cultured with CAFs, FIGS. 6D, 7D, 8D) is recorded as “did not show any effect”. Moreover, the “growth-suppressing activity on tumor (cancer) cells” value with tumor cells is recorded as “growth-suppressing effect”.
